Tests used:
Assay in all cases: L-alanine-aminopeptidase activity on gelled medium, Example 8
Assay type in all cases: cell-based
Design in all cases: key to growth: ++ means good growth; + means moderate growth; +/− means poor growth; NG means no growth
[1] = tested on: Staphylococcus aureus (NCTC 11939)
Experimental: (§1) A gelled medium comprising these three substrates is prepared as follows: 30 mg of each substrate are dissolved (heating) in 10 ml of sterile distilled water. Ten ml of this solution are then added to 90 ml of Columbia agar kept molten at 50° C.
(§2) Various strains of microorganisms derived from the NCTC collection (National Collection of Type Cultures, Colindale, UK) were seeded onto the media thus obtained according to multipoint inoculation: for each strain, a drop of 10 μl of a suspension at 0.5 McFarland is deposited onto each of the culture media.
(§3) The colonies formed were examined visually after incubation for 24 h and 48 h. The color and the growth of these colonies were noted.

[2] = tested on: Enterococcus faecium (NCTC 7171)
Experimental: as §1, §2, §3

[3] = tested on: Salmonella typhimurium (NCTC 74)
Experimental: as §1, §2, §3

[4] = tested on: Serratia marcescens (NCTC 10211)
Experimental: as §1, §2, §3

[5] = tested on: Burkholderia cepacia (NCTC 10743)
Experimental: as §1, §2, §3

[6] = tested on: Salmonella poona (NCTC 4840)
Experimental: as §1, §2, §3

[7] = tested on: Enterococcus faecalis (NCTC 12697)
Experimental: as §1, §2, §3

[8] = tested on: Shigella sonnei (NCTC 9774)
Experimental: as §1, §2, §3

[9] = tested on: Enterobacter cloacae (NCTC 11936)
Experimental: as §1, §2, §3

[10] = tested on: Staphylococcus aureus (NCTC 6571)
Experimental: as §1, §2, §3

[11] = tested on: Listeria monocytogenes (NCTC 11994)
Experimental: as §1, §2, §3

[12] = tested on: Klebsiella pneumoniae (NCTC 10896)
Experimental: as §1, §2, §3

[13] = tested on: E. coli O157 (NCTC 12079)
Experimental: as §1, §2, §3

[14] = tested on: Enterococcus faecalis (NCTC 755)
Experimental: as §1, §2, §3

[15] = tested on: Pseudomonas aeruginosa (NCTC 10662)
Experimental: as §1, §2, §3

C[C@H](N)C(=O)N[C@@H](C)C(=O)Nc1ccc(-c2c3ccccc3[n+](C)c3ccccc23)cc1.[Cl-] [L-Ala-L-Ala-4-AP-10-MA]
color of colonies ([1]; 24 h): Colorless | growth ([1]; 24 h): ++ | color of colonies ([1]; 48 h): Colorless | growth ([1]; 48 h): ++ | color of colonies ([2]; 24 h): Colorless | growth ([2]; 24 h): ++ | color of colonies ([2]; 48 h): Colorless | growth ([2]; 48 h): ++ | color of colonies ([3]; 24 h): Orange | growth ([3]; 24 h): ++ | color of colonies ([3]; 48 h): Orange | growth ([3]; 48 h): ++ | color of colonies ([4]; 24 h): Orange | growth ([4]; 24 h): ++ | color of colonies ([4]; 48 h): Orange | growth ([4]; 48 h): ++ | color of colonies ([5]; 24 h): Orange | growth ([5]; 24 h): ++ | color of colonies ([5]; 48 h): Orange | growth ([5]; 48 h): ++ | color of colonies ([6]; 24 h): Orange | growth ([6]; 24 h): ++ | color of colonies ([6]; 48 h): Orange | growth ([6]; 48 h): ++ | color of colonies ([7]; 24 h): Colorless | growth ([7]; 24 h): ++ | color of colonies ([7]; 48 h): Colorless | growth ([7]; 48 h): ++ | color of colonies ([8]; 24 h): Orange | growth ([8]; 24 h): ++ | color of colonies ([8]; 48 h): Orange | growth ([8]; 48 h): ++ | color of colonies ([9]; 24 h): Orange | growth ([9]; 24 h): ++ | color of colonies ([9]; 48 h): Orange | growth ([9]; 48 h): ++ | growth ([10]; 24 h): NG | growth ([10]; 48 h): NG | color of colonies ([11]; 24 h): Colorless | growth ([11]; 24 h): ++ | color of colonies ([11]; 48 h): Colorless | growth ([11]; 48 h): ++ | color of colonies ([12]; 24 h): Orange | growth ([12]; 24 h): ++ | color of colonies ([12]; 48 h): Orange | growth ([12]; 48 h): ++ | color of colonies ([13]; 24 h): Orange | growth ([13]; 24 h): ++ | color of colonies ([13]; 48 h): Orange | growth ([13]; 48 h): ++ | color of colonies ([14]; 24 h): Colorless | growth ([14]; 24 h): ++ | color of colonies ([14]; 48 h): Colorless | growth ([14]; 48 h): ++ | color of colonies ([15]; 24 h): Orange | growth ([15]; 24 h): ++ | color of colonies ([15]; 48 h): Orange | growth ([15]; 48 h): ++

C[C@H](N)C(=O)N[C@@H](C)C(=O)N[C@@H](C)C(=O)Nc1ccc(-c2c3ccccc3[n+](C)c3ccccc23)cc1.[Cl-] [L-Ala-L-Ala-L-Ala-4-AP-10-MA]
color of colonies ([1]; 24 h): Colorless | growth ([1]; 24 h): ++ | color of colonies ([1]; 48 h): Colorless | growth ([1]; 48 h): ++ | color of colonies ([2]; 24 h): Colorless | growth ([2]; 24 h): ++ | color of colonies ([2]; 48 h): Colorless | growth ([2]; 48 h): ++ | color of colonies ([3]; 24 h): Orange | growth ([3]; 24 h): ++ | color of colonies ([3]; 48 h): Orange | growth ([3]; 48 h): ++ | color of colonies ([4]; 24 h): Orange | growth ([4]; 24 h): ++ | color of colonies ([4]; 48 h): Orange | growth ([4]; 48 h): ++ | color of colonies ([5]; 24 h): Orange | growth ([5]; 24 h): ++ | color of colonies ([5]; 48 h): Orange | growth ([5]; 48 h): ++ | color of colonies ([6]; 24 h): Orange | growth ([6]; 24 h): ++ | color of colonies ([6]; 48 h): Orange | growth ([6]; 48 h): ++ | color of colonies ([7]; 24 h): Colorless | growth ([7]; 24 h): ++ | color of colonies ([7]; 48 h): Colorless | growth ([7]; 48 h): ++ | color of colonies ([8]; 24 h): Orange | growth ([8]; 24 h): ++ | color of colonies ([8]; 48 h): Orange | growth ([8]; 48 h): ++ | color of colonies ([9]; 24 h): Orange | growth ([9]; 24 h): ++ | color of colonies ([9]; 48 h): Orange | growth ([9]; 48 h): ++ | color of colonies ([10]; 24 h): Colorless | growth ([10]; 24 h): ++ | color of colonies ([10]; 48 h): Colorless | growth ([10]; 48 h): ++ | color of colonies ([11]; 24 h): Colorless | growth ([11]; 24 h): ++ | color of colonies ([11]; 48 h): Colorless | growth ([11]; 48 h): ++ | color of colonies ([12]; 24 h): Orange | growth ([12]; 24 h): ++ | color of colonies ([12]; 48 h): Orange | growth ([12]; 48 h): ++ | color of colonies ([13]; 24 h): Orange | growth ([13]; 24 h): ++ | color of colonies ([13]; 48 h): Orange | growth ([13]; 48 h): ++ | color of colonies ([14]; 24 h): Colorless | growth ([14]; 24 h): ++ | color of colonies ([14]; 48 h): Colorless | growth ([14]; 48 h): ++ | color of colonies ([15]; 24 h): Orange | growth ([15]; 24 h): ++ | color of colonies ([15]; 48 h): Orange | growth ([15]; 48 h): ++
